Source: patent US20100143381A1, “LYSOPHOSPHATIDIC ACID RECEPTOR TARGETING FOR LUNG DISEASE” (priority 2007, published 2010)
Entries after “also recorded” stand apart in the source; their conditions may differ.

Columns and labels:
[1] = test system: LPA-activated chloride channel; conditions: elevated levels; human lung fibroblasts; literature (Yin et al. 2005); cited from earlier work
[2] = test system: primary mouse lung fibroblasts; test: LPA-induced fibroblast chemotaxis; format: cell-based; conditions: for effect of albumin on LPA-induced fibroblast chemotaxis: 0.1% fatty acid-free BSA, C57Bl/6 lung fibroblasts, FIG. 9b
Procedure: (§1) Lungs from unchallenged C57BL/6, LPA1^−/− or littermate wild type mice were digested for 45 minutes at 37° C. in DMEM with 0.14 U/ml Liberase Blenzyme 3 (Roche), and 60 μg/ml DNAse 1 (Sigma), passed through a 70 μm filter, centrifuged at 540×g at 4° C. and plated in tissue culture flasks in DMEM with 15% (vol/vol) fetal bovine serum (FBS, Sigma). Cells were passaged when subconfluent following harvest with trypsin-EDTA (Cellgro®). To ensure that cultures contained almost purely fibroblasts, cells were used for experiments at passage 3 or higher.
(§2) After being serum-starved in DMEM without FBS overnight, subconfluent primary lung fibroblasts were harvested with non-enzymatic Cell Dissociation Solution (Sigma) to avoid possible proteolysis of surface chemoattractant receptors by trypsin. Harvested cells, at 5.0×10^5 cells/ml in 50 μl of DMEM, were placed in the top of a 48-well modified Boyden microchemotaxis chamber (NeuroProbe). Duplicate 30 μl aliquots of either: i) 18:1 LPA (Avanti Polar Lipids) or PDGF-BB (R&D Systems) in DMEM with 0.1% fatty acid-free bovine serum albumin (Sigma); or ii) BAL, or BAL fractions, diluted 1:4 in DMEM, were placed in the bottom wells of the chamber and separated from the cells by a 8-μm-pore, polyvinylpyrrolidone-free polycarbonate filter (Osmonics) that had been coated with fibronectin (Sigma). The apparatus was incubated at 37° C. and 5% CO2 for 3 hours, and cells migrating across the filter and adhering to the bottom side of the filter were stained with a commercially modified Wright's stain (Hema 3 stain set, Fisher Diagnostics) and counted, after cells remaining on the top side of the filter had been scraped off. Data from these experiments is presented as chemotactic indices, i.e. the number of cells migrating in response to BAL divided by the number of cells migrating to media controls.

[3] = test system: primary mouse lung fibroblasts; test: Fibroblast chemotaxis induced by BAL from mice on Day 5 post-bleomycin (modified Boyden chamber); format: cell-based
Procedure: Bronchoalveolar lavage (BAL) samples were obtained by lung lavage using two 0.5 ml aliquots of PBS. These samples were then provided for analysis of: i) chemoattractant activity, ii) LPA; iii) total protein; and iv) D-dimer concentrations. These BAL samples were centrifuged at 3000×g for 20 min at 4° C., and the supernatants transferred to siliconized low-binding eppendorf tubes (PGC Scientifics) for subsequent analysis.
as §1
as §2, with “Data from these experiments is presented as chemotactic indices, i.e. the number of cells migrating in response to BAL divided by the number of cells migrating to media controls.” left out

[4] = test system: primary mouse lung fibroblasts; test: PDGF-induced fibroblast chemotaxis (specificity control); format: cell-based
Procedure: as §1, §2

[5] = test system: LPA1, LPA3, LPA2; conditions: literature (Ohta et al. 2003; Heise et al. 2001); cited from earlier work
[6] = test system: human fetal lung fibroblasts (HFL1 cells); test: Fibroblast chemotaxis induced by BAL samples from human IPF patients; format: cell-based; conditions: 1 μM Ki16425; FIG. 8d
Procedure: After being serum-starved in DMEM without FBS overnight, subconfluent primary lung fibroblasts were harvested with non-enzymatic Cell Dissociation Solution (Sigma) to avoid possible proteolysis of surface chemoattractant receptors by trypsin. Harvested cells, at 5.0×10^5 cells/ml in 50 μl of DMEM, were placed in the top of a 48-well modified Boyden microchemotaxis chamber (NeuroProbe). […] The apparatus was incubated at 37° C. and 5% CO2 for 3 hours, and cells migrating across the filter and adhering to the bottom side of the filter were stained with a commercially modified Wright's stain (Hema 3 stain set, Fisher Diagnostics) and counted, after cells remaining on the top side of the filter had been scraped off. […]
BAL samples were recovered from IPF patients and normal controls following instillation of sterile 0.9% saline by flexible fiberoptic bronchoscopy, performed both at the Instituto Nacional de Enfermedades Respiratorias and the Massachusetts General Hospital (MGH), as previously described. […] Cells growing at passage 3 or higher were analyzed as primary human BAL fibroblasts.

[7] = test system: sphingosine 1-phosphate receptors; conditions: literature (Ohta et al. 2003); cited from earlier work

Question: Which “effect on activation of LPA-activated chloride channel” value [1] does the source give for dioctyl-glycerol pyrophosphate here?
Answer: blocked

Question: With lysophosphatidic acid [LPA] as the molecule, how does the “fibroblast chemotactic activity of LPA” value ([2]; LPA bound to albumin, FIG. 1h) read?
Answer: chemotactic; also recorded: potent fibroblast chemoattractant

Question: For pertussis toxin [PTX], which “effect of PTX pretreatment on BAL-induced fibroblast chemotaxis” value ([3]; PTX-pretreatment of fibroblasts, D5 BAL, FIG. 1b) is on record?
Answer: inhibited chemotaxis; also recorded: completely inhibited

Question: What about the “effect of PTX pretreatment on PDGF-induced fibroblast chemotaxis” value ([4]; PTX-pretreatment of fibroblasts, FIG. 1b, 1i) of the same molecule?
Answer: not inhibited

Question: And the “effect of PTX pretreatment on LPA-induced fibroblast chemotaxis” value ([2]; PTX-pretreatment, LPA 10^−9-10^−7 M, FIG. 1i)?
Answer: inhibited chemotaxis; also recorded: reduced

Question: With `CCCCCCCC/C=C\CCCCCCCC(=O)N[C@@H](COP(=O)(O)O)Cc1ccc(OCc2ccccc2)cc1` [VPC12249] as the molecule, how does the “effect on fibroblast chemotaxis induced by D5 post-bleomycin BAL” value ([3]; 100 μM VPC12249, C57BL/6 fibroblasts, FIG. 10) read?
Answer: reduced chemotaxis; also recorded: significantly inhibited

Question: What about the “effect on PDGF-induced fibroblast chemotaxis” value ([4]; 100 μM VPC12249, PDGF 10^−9 M, FIG. 10) of the same molecule?
Answer: did not affect; also recorded: similar; also recorded: not affected

Question: And the “receptor subtype rank order of inhibition of LPA-induced responses” value [5]?
Answer: LPA1≧LPA3>>LPA2

Question: Which “effect of albumin on LPA-induced fibroblast chemotaxis” value [2] does the source give for “fatty acid-free BSA: fatty acid-free bovine serum albumin (Sigma)” here?
Answer: potentiated

Question: And the “effect of albumin on LPA-induced fibroblast chemotaxis” value ([2]; listed as methanol extracted fatty acid-free albumin)?
Answer: significantly potentiated

Question: Which results are given for `Cc1noc(-c2ccc(CSCCC(=O)O)cc2)c1NC(=O)OC(C)c1ccccc1Cl` (stereo not drawn) [Ki16425]?
Answer: effect on fibroblast chemotaxis induced by D5 post-bleomycin BAL ([3]; 1 μM Ki16425, C57BL fibroblasts, FIG. 5b): significantly inhibited; effect on PDGF-induced fibroblast chemotaxis ([4]; 1 μM Ki16425, 10^−8 or 10^−7 M PDGF, FIG. 5b): not affected; also recorded: similar; also recorded: did not affect; effect on chemotaxis of HFL1 cells to BAL samples from IPF patients [6]: reduced chemotaxis; also recorded: significantly inhibited; receptor subtype rank order of inhibition of LPA-induced responses [5]: LPA1≧LPA3>>LPA2; effects on cellular responses mediated by sphingosine 1-phosphate receptors [7]: without appreciable effects
